Target: T1, DNA topoisomerase 1 (Topo1) (Spodoptera exigua, UniProt G1FWE7)
T1 construct: Topo70, N-terminally truncated, residues 337–930, GST fusion expressed in E. coli BL21 (DE3)
T1 sequence (G1FWE7 337-930): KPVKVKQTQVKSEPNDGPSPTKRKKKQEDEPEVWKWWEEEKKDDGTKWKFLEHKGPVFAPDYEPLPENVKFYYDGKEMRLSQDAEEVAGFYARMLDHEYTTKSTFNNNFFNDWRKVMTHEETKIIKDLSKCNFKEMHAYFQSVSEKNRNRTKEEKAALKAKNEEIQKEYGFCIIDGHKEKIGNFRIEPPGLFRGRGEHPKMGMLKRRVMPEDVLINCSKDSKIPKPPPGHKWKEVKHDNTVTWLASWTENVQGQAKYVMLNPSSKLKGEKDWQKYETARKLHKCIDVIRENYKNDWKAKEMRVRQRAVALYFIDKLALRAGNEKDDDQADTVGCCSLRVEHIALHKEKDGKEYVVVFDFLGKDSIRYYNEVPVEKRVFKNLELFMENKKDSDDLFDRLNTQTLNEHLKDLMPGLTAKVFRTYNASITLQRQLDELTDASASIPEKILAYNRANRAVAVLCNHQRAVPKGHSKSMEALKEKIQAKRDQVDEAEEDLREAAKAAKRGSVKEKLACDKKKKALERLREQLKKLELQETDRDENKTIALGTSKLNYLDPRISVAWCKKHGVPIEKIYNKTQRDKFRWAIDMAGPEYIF
Experiment: pBR322 DNA relaxation assay with purified recombinant Topo1, agarose gel densitometry
Type: biochemical

Structure (SMILES) | EC50
CC[C@@]1(O)C(=O)OCc2c1cc1n(c2=O)Cc2cc3ccccc3nc2-1 [CPT, Camptothecin] | 4.42 µM
CC[C@@]1(O)C(=O)OCc2c1cc1n(c2=O)Cc2cc3cc(O)ccc3nc2-1 [HCPT, hydroxy-camptothecin] | 15.2 µM
